Columns and labels:
HCV genotype 1b replicon = HCV genotype 1b replicon assay (Renilla luciferase readout); format: cell-based, hepatitis C virus; settings: for EC50: Hepatitis C virus, read-out: Genotype 1b
Method in brief: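 Reported as pEC50 derived from a 4-parameter fit of Renilla luciferase activity against concentration. Replicon cells (APC144, Huh7 background) were exposed to compound for 48 h in G418-free medium with final 0.5% DMSO, after seeding at 10,000 cells/well and 4 h adherence.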

HCV genotype 1a replicon = HCV genotype 1a replicon assay (NS3 protease activity readout); format: cell-based, hepatitis C virus; settings: for EC50: Hepatitis C virus, read-out: Genotype 1a, HCV genotype 1a replicon
Method in brief: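 EC50 values came from a 4-parameter robust fit of fluorescence (ex 340, em 509 nm) produced by NS3-specific protease in lysates, assayed with 15 μM FRET substrate for 20 min at 37° C, after 48 or 72 hours of compound exposure (0.5% DMSO) of Huh7.5-derived APC89 genotype 1a replicon cells.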

[1] = system: HCV genotype 3a NS5A chimeric replicon; experiment: Replicon assay against NS5A sequence of genotype 3a, intergenotypic chimera; format: cell-based; settings: Hepatitis C virus, read-out: Genotype 3a
Procedure: (§1) Assay 4: Replicon Assays Against NS5A Sequences of Other Genotypes
(§2) Potencies of test compounds against NS5A sequences of other genotypes were determined by creating intergenotypic chimeras. The entire NS5A gene from genotypes 2a, 2b, 3a, 4a, 5a, and 6a, or the nucleotide sequence encoding amino acids 11-118 of NS5A, was subcloned into a genotype 1b replicon. For genotype 2a, intergenotypic chimeras with both the JFH and the J6 strain were created. […] Since the majority of genotype 2a sequences in public databases contain the L31M sequence variant, the use of the J6 genotype 2a sequence may better reflect the antiviral potency of NS5A inhibitors.
(§3) These chimeric replicon plasmids were then linearized and in vitro transcribed to RNA. The RNA was used to transiently or stably transfect Huh-LUNET cells by electroporation, and the potencies of test compounds against the chimeras were determined as previously described.

[2] = system: HCV genotype 1a Y93H resistant mutant replicon; experiment: Replicon assay against resistant mutant 1a Y93H (transient transfection); format: cell-based; settings: Hepatitis C virus, read-out: Genotype 1a Y93H
Procedure: Assay 3: Replicon Assays Against Resistant Mutants […]
Potencies of test compounds against additional mutations of interest were determined using transient transfection assays. These mutants included genotype 1a Y93C, Y93H, M28T, Q30E, Q30K, L31M, and Y93N. The mutation was first introduced into the parental plasmid by site-directed mutagenesis. The replicon plasmid was then linearized and in vitro transcribed to RNA. The RNA was used to transiently transfect Huh-LUNET cells (obtained from ReBLikon GmbH, Schriesheim, Germany) by electroporation, and the potencies of test compounds against the mutants were determined as previously described.

[3] = system: HCV genotype 2a (J6 strain) NS5A chimeric replicon; experiment: Replicon assay against NS5A sequence of genotype 2a (J6 strain), intergenotypic chimera; format: cell-based; settings: Hepatitis C virus, read-out: Genotype 2a (J6)
Procedure: as §1, §2, §3

SMILES | EC50 (HCV genotype 1b replicon) [nM] | EC50 (HCV genotype 1a replicon) [nM] | EC50 [1] [nM] | EC50 [2] [nM] | EC50 [3] [nM] | Genotype 1b (HCV genotype 1b replicon; HCV genotype 1b replicon) | Genotype 1a (HCV genotype 1a replicon; HCV genotype 1a replicon)
CNC(=O)N1C[C@@H](C)N(c2ccc(C(=O)Nc3cc(OC(F)(F)F)c(-c4ccc(-c5c[nH]c([C@@H]6C[C@H](C)CN6C(=O)[C@@H](NC(=O)OC)C(C)C)n5)cc4)cc3Cl)cn2)C[C@@H]1C [Example 1, ((S)-1-{(2S,4S)-2-[4-(5′-Chloro-4′-{[6-((2R,5S)-2,5-dimethyl-4-methylcarbamoyl-piperazin-1-yl)-pyridine-3-carbonyl]-amino}-2′-trifluoromethoxy-biphenyl-4-yl)-1H-imidazol-2-yl]-4-methyl-pyrrolidine-1-carbonyl}-2-methyl-propyl)-carbamic acid methyl ester] | < 0.1 | < 0.1 | 10 to 1000 | 10 to 1000 | 10 to 1000 |  | 
COC(=O)N[C@H](C(=O)N1C[C@@H](C)C[C@H]1c1nc(-c2ccc(-c3cc(Cl)c(NC(=O)c4ccc(N5CCN(C(=O)[C@H]6CC6(C)C)C[C@H]5C)nc4)cc3OC(F)(F)F)cc2)c[nH]1)C(C)C [Example 2, [(S)-1-((2S,4S)-2-{4-[5′-Chloro-4′-({6-[(R)-4-((S)-2,2-dimethyl-cyclopropanecarbonyl)-2-methyl-piperazin-1-yl]-pyridine-3-carbonyl}-amino)-2′-trifluoromethoxy-biphenyl-4-yl]-1H-imidazol-2-yl}-4-methyl-pyrrolidine-1-carbonyl)-2-methyl-propyl]-carbamic acid methyl ester] | < 0.1 | < 0.1 | 1 to 10 |  | 1 to 10 |  | 
COC(=O)N[C@H](C(=O)N1CC2(C[C@H]1c1nc(-c3ccc(-c4ccc(NC(=O)c5ccc(N6CCN(C(=O)[C@H]7CC7(C)C)C[C@H]6C)nc5)cc4OC(F)(F)F)cc3)c[nH]1)OCCO2)C(C)C [Example 4, Methyl (S)-1-((S)-8-(4-(4′-(6-((R)-4-((S)-2,2-dimethylcyclopropanecarbonyl)-2-methylpiperazin-1-yl)nicotinamido)-2′-(trifluoromethoxy)biphenyl-4-yl)-1H-imidazol-2-yl)-1,4-dioxa-7-azaspiro[4.4]nonan-7-yl)-3-methyl-1-oxobutan-2-ylcarbamate] | < 0.1 | < 0.1 | 1 to 10 | 0.1 to 1 | 1 to 10 |  | 
COC(=O)N[C@H](C(=O)N1C[C@@H](C)C[C@H]1c1nc(-c2ccc(-c3ccc(C(=O)Nc4ccc(N5C[C@H](C)N(C(=O)[C@H]6CC6(C)C)C[C@H]5C)nc4)cc3OC(F)(F)F)cc2)c[nH]1)C(C)C [Example 7, ((S)-1-{(2S,4S)-2-[4-(4′-{6-[(2R,5S)-4-((S)-2,2-Dimethyl-cyclopropanecarbonyl)-2,5-dimethyl-piperazin-1-yl]-pyridin-3-ylcarbamoyl}-2′-trifluoromethoxy-biphenyl-4-yl)-1H-imidazol-2-yl]-4-methyl-pyrrolidine-1-carbonyl}-2-methyl-propyl)-carbamic acid methyl ester] | < 0.1 | < 0.1 | 10 to 1000 |  | 10 to 1000 |  | 
COC(=O)N[C@H](C(=O)N1C[C@@H](C)C[C@H]1c1nc(-c2ccc(-c3ccc(C(=O)Nc4ccc(N5CCN(C(=O)[C@H]6CC6(C)C)C[C@H]5C)nc4)cc3OC(F)(F)F)cc2)c[nH]1)C(C)C [Example 8, ((S)-1-{(2S,4S)-2-[4-(4′-{6-[(R)-4-((S)-2,2-Dimethyl-cyclopropanecarbonyl)-2-methyl-piperazin-1-yl]-pyridin-3-ylcarbamoyl}-2′-trifluoromethoxy-biphenyl-4-yl)-1H-imidazol-2-yl]-4-methyl-pyrrolidine-1-carbonyl}-2-methyl-propyl)-carbamic acid methyl ester] | < 0.1 | < 0.1 | 10 to 1000 | 10 to 1000 | 10 to 1000 |  | 
COC(=O)N[C@H](C(=O)N1C[C@@H](SC)C[C@H]1c1nc(-c2ccc(-c3ccc(C(=O)Nc4ccc(N5CCN(C(=O)[C@H]6CC6(C)C)C[C@H]5C)nc4)cc3OC(F)(F)F)cc2)c[nH]1)C(C)C [Example 9, ((S)-1-{(2S,4S)-2-[4-(4′-{6-[(R)-4-((S)-2,2-Dimethyl-cyclopropanecarbonyl)-2-methyl-piperazin-1-yl]-pyridin-3-ylcarbamoyl}-2′-trifluoromethoxy-biphenyl-4-yl)-1H-imidazol-2-yl]-4-methylsulfanyl-pyrrolidine-1-carbonyl}-2-methyl-propyl)-carbamic acid methyl ester] | < 0.1 | < 0.1 | 10 to 1000 |  | 10 to 1000 |  | 
COC(=O)N[C@H](C(=O)N1C[C@@H](C)C[C@H]1c1nc(-c2ccc(-c3cc(Cl)c(NC(=O)c4ccc(N5CCN(C(=O)C(C)(C)C)C[C@H]5C)nc4)cc3OC(F)(F)F)cc2)c[nH]1)C(C)C [Example 10, [(S)-1-((2S,4S)-2-{4-[5′-Chloro-4′-({6-[(R)-4-(2,2-dimethyl-propionyl)-2-methyl-piperazin-1-yl]-pyridine-3-carbonyl}-amino)-2′-trifluoromethoxy-biphenyl-4-yl]-1H-imidazol-2-yl}-4-methyl-pyrrolidine-1-carbonyl)-2-methyl-propyl]-carbamic acid methyl ester] | < 0.1 | < 0.1 | 1 to 10 | 1 to 10 | 1 to 10 |  | 
COC(=O)N[C@H](C(=O)N1C[C@@H](C)C[C@H]1c1nc(-c2ccc(-c3cc(F)c(NC(=O)c4ccc(N5CCN(C(=O)C(C)(C)C)C[C@H]5C)nc4)cc3OC(F)(F)F)cc2)c[nH]1)C(C)C [Example 11, [(S)-1-((2S,4S)-2-{4-[4′-({6-[(R)-4-(2,2-Dimethyl-propionyl)-2-methyl-piperazin-1-yl]-pyridine-3-carbonyl}-amino)-5′-fluoro-2′-trifluoromethoxy-biphenyl-4-yl]-1H-imidazol-2-yl}-4-methyl-pyrrolidine-1-carbonyl)-2-methyl-propyl]-carbamic acid methyl ester] | < 0.1 | < 0.1 | 1 to 10 | 10 to 1000 | 1 to 10 |  | 
COC(=O)N[C@H](C(=O)N1C[C@@H](C)C[C@H]1c1nc(-c2ccc(-c3ccc(C(=O)Nc4ccc(N5CCN(C(=O)C(C)(C)C)C[C@H]5C)nc4)cc3OC(F)(F)F)cc2)c(Cl)[nH]1)C(C)C [Example 12, ((S)-1-{(2S,4S)-2-[5-Chloro-4-(4′-{6-[(R)-4-(2,2-dimethyl-propionyl)-2-methyl-piperazin-1-yl]-pyridin-3-ylcarbamoyl}-2′-trifluoromethoxy-biphenyl-4-yl)-1H-imidazol-2-yl]-4-methyl-pyrrolidine-1-carbonyl}-2-methyl-propyl)-carbamic acid methyl ester] | < 0.1 | < 0.1 | 1 to 10 | 1 to 10 | 1 to 10 |  | 
COC(=O)N[C@H](C(=O)N1C[C@@H](OC)C[C@H]1c1nc(-c2ccc(-c3cc(Cl)c(NC(=O)c4ccc(N5CCN(C(=O)C(C)(C)C)C[C@H]5C)nc4)cc3OC(F)(F)F)cc2)c[nH]1)C(C)C [Example 13] | < 0.1 | < 0.1 | 0.1 to 1 | 1 to 10 | 0.1 to 1 |  | 
COC(=O)N[C@H](C(=O)N1C[C@@H](C)C[C@H]1c1nc(-c2ccc(-c3cc(Cl)c(NC(=O)c4ccc(N5CCN(C(=O)C(C)(C)C)C[C@H]5C)nc4)cc3OC(F)(F)F)cc2)c[nH]1)C1CCOCC1 [Example 14] | < 0.1 | < 0.1 | 0.1 to 1 | 1 to 10 | 0.1 to 1 |  | 
COC(=O)N[C@H](C(=O)N1C[C@@H](C#N)C[C@H]1c1nc(-c2ccc(-c3cc(Cl)c(NC(=O)c4ccc(N5CCN(C(=O)OC(C)(C)C)C[C@H]5C)nc4)cc3OC(F)(F)F)cc2)c[nH]1)C(C)C [Example 17, (R)-4-[5-(5-Chloro-4′-{2-[(2S,4S)-4-cyano-1-((S)-2-methoxycarbonylamino-3-methyl-butyryl)-pyrrolidin-2-yl]-1H-imidazol-4-yl}-2-trifluoromethoxy-biphenyl-4-ylcarbamoyl)-pyridin-2-yl]-3-methyl-piperazine-1-carboxylic acid tert-butyl ester] |  | 0.1 to 1 | 10 to 1000 | 10 to 1000 | 10 to 1000 |  | 
COCC1(C(=O)N2CCN(c3ccc(C(=O)Nc4cc(OC(F)(F)F)c(-c5ccc(-c6c[nH]c([C@@H]7C[C@H](OC)CN7C(=O)[C@@H](NC(=O)OC)C7CCOCC7)n6)cc5)cc4Cl)cn3)[C@H](C)C2)CCC1 [Example 28-22] |  |  |  |  |  | D (D represents pEC50>10 (EC50<0.1 nM)) | D (D represents pEC50>10 (EC50<0.1 nM))

Source: patent US9212168B2 (priority 2011, dated 2015)
